{
  "source": "paper PMC6066796",
  "about": "(Antiviral Research, 2018)",
  "key": {"NiV-GFP2AM [1]": {"system": "NiV-GFP2AM", "experiment": "microbe, parasite or virus in culture", "assay_type": "cell-based, Nipah virus"}, "SUDV (Gulu variant) [2]": {"system": "SUDV (Gulu variant)", "assay_type": "cell-based"}, "MARV-ZsG": {"system": "MARV-ZsG", "assay_type": "cell-based, Marburg virus"}, "SUDV (Gulu variant) [3]": {"system": "SUDV (Gulu variant)", "assay_type": "cell-based", "remark": "listed apart in the source"}, "reporter EBOVs": {"system": "reporter EBOVs", "assay_type": "cell-based, Ebola virus"}, "rgRSV224": {"system": "rgRSV224", "experiment": "microbe, parasite or virus in culture", "assay_type": "cell-based, respiratory syncytial virus"}, "henipavirus (NiV, HeV)": {"system": "henipavirus (NiV, HeV)", "assay_type": "cell-based, Nipah virus, Hendra virus"}, "EBOV-ZsG": {"system": "EBOV-ZsG", "experiment": "microbe, parasite or virus in culture", "assay_type": "cell-based, Ebola virus"}, "NiV-GFP2AM [4]": {"system": "NiV-GFP2AM", "experiment": "microbe, parasite or virus in culture", "assay_type": "cell-based, Nipah virus", "remark": "listed apart in the source"}, "EBOV (Makona variant)": {"system": "EBOV (Makona variant)", "assay_type": "cell-based, Ebola virus"}, "hPIV3-GFP": {"system": "hPIV3-GFP", "experiment": "microbe, parasite or virus in culture", "assay_type": "cell-based, human parainfluenza virus 3"}, "rMV^EZEGFP(3)": {"system": "rMV^EZEGFP(3)", "assay_type": "cell-based, Measles virus"}, "RVFV-GFP, ZH501": {"system": "RVFV-GFP, ZH501", "experiment": "microbe, parasite or virus in culture", "assay_type": "cell-based, Rift Valley Fever virus"}, "[5]": {"system": "recombinant EBOV (Mayinga variant)", "assay_type": "cell-based, Ebola virus"}, "EBOV": {"system": "EBOV", "details": "at 1000 μM; cited from earlier work"}, "NCI-H358 cells [6]": {"system": "NCI-H358 cells", "details": "human"}, "SK-N-MC cells": {"system": "SK-N-MC cells", "details": "human"}, "NiV (Malaysian genotype)": {"system": "NiV (Malaysian genotype)", "experiment": "microbe, parasite or virus in culture", "assay_type": "cell-based, Nipah virus"}, "NCI-H358 cells [7]": {"system": "NCI-H358 cells"}, "HeLa cells": {"system": "HeLa cells", "details": "human"}, "Huh7 cells": {"system": "Huh7 cells", "details": "human"}, "HeV": {"system": "HeV", "experiment": "microbe, parasite or virus in culture", "assay_type": "cell-based, Hendra virus"}, "NiV and EBOV": {"system": "NiV and EBOV", "assay_type": "cell-based, Nipah virus, Ebola virus"}, "[8]": {"details": "Henipavirus nipahense, SAEC, in Homo sapiens"}},
  "note": "Where two headings read alike, the source gives them in different places.",
  "data": [
    {"compound": "2′-monofluoro-4′-azidocytidine [2′F-4′N3-C]", "values": [
      {"measurement": "Effect on GFP expression", "setting": "NiV-GFP2AM [1]", "value": "completely abolished"},
      {"measurement": "Reduction of infectious SUDV yield", "setting": "SUDV (Gulu variant) [2]", "value": "approximately 1.5 orders of magnitude"},
      {"measurement": "EC50", "setting": "MARV-ZsG", "value": "> 50", "unit": "µM"},
      {"measurement": "Inhibition of MARV infection by FFU assay", "setting": "MARV-ZsG", "value": "did not show any significant inhibition"},
      {"measurement": "EC50", "setting": "SUDV (Gulu variant) [3]", "value": "~10", "unit": "µM"},
      {"measurement": "Antiviral activity against reporter EBOVs in Huh7 cells", "setting": "reporter EBOVs", "value": "significantly decreased antiviral activity"},
      {"measurement": "EC50", "setting": "rgRSV224", "value": 0.28, "unit": "µM"},
      {"measurement": "Reduction of infectious henipavirus yields", "setting": "henipavirus (NiV, HeV)", "value": "4–5 orders of magnitude"},
      {"measurement": "EC50", "setting": "EBOV-ZsG", "value": 3.85, "unit": "µM"},
      {"measurement": "Effect on CPE", "setting": "NiV-GFP2AM [4]", "value": "completely abolished"},
      {"measurement": "Inhibition of FFU formation", "setting": "EBOV (Makona variant)", "value": "did not detect significant inhibition"},
      {"measurement": "EC50", "setting": "hPIV3-GFP", "value": 0.16, "unit": "µM"},
      {"measurement": "EC50", "setting": "rMV^EZEGFP(3)", "value": 0.27, "unit": "µM"},
      {"measurement": "EC50", "setting": "RVFV-GFP, ZH501", "value": "> 50", "unit": "µM"},
      {"measurement": "EC50", "setting": "[5]", "value": 7.79, "unit": "µM"}
    ]},
    {"compound": "NC(=O)c1nc(F)c[nH]c1=O", "note": "[Favipiravir]", "values": [
      {"measurement": "Decrease of EBOV infectious yield", "setting": "EBOV", "value": 4, "unit": "logTCID50/mL"}
    ]},
    {"compound": "[N-]=[N+]=N[C@]1(CO)O[C@@H](n2ccc(N)nc2=O)[C@H](O)[C@@H]1O", "note": "[R1479, 4′-azidocytidine]", "values": [
      {"measurement": "R1479-TP level (intracellular triphosphate)", "setting": "NCI-H358 cells [6]", "value": "391 ± 72", "unit": "pmol/million cells"},
      {"measurement": "EC50", "setting": "NiV-GFP2AM [1]; [8]", "value": "> 50", "unit": "µM"},
      {"measurement": "R1479-TP level (intracellular triphosphate)", "setting": "SK-N-MC cells", "value": "42 ± 10", "unit": "pmol/million cells"},
      {"measurement": "Reduction of infectious SUDV titers", "setting": "SUDV (Gulu variant) [2]; at 25 μM", "value": "> 4 orders of magnitude"},
      {"measurement": "Inhibition of MARV infection by FFU assay", "setting": "MARV-ZsG", "value": "did not show any significant inhibition"},
      {"measurement": "Antiviral activity against reporter EBOVs in Huh7 cells", "setting": "reporter EBOVs", "value": "significantly decreased antiviral activity"},
      {"measurement": "SI (selective index)", "setting": "rgRSV224", "value": "3.3 ± 0.39 [>30]"},
      {"measurement": "EC50", "setting": "rgRSV224; human respiratory syncytial virus, NCI-H358", "value": 3.3, "unit": "µM"},
      {"measurement": "SI (selective index)", "setting": "NiV (Malaysian genotype)", "value": "2.9 ± 0.95 [>34]"},
      {"measurement": "EC50", "setting": "NiV (Malaysian genotype); Henipavirus nipahense, NCI-H358", "value": 2.9, "unit": "µM"},
      {"measurement": "Cytotoxicity (cell viability)", "setting": "NCI-H358 cells [7]", "value": "mild cytotoxicity"},
      {"measurement": "R1479-TP level (intracellular triphosphate)", "setting": "HeLa cells", "value": "136 ± 21", "unit": "pmol/million cells"},
      {"measurement": "SI (selective index)", "setting": "EBOV-ZsG", "value": "2.1 ± 0.07 [>47]"},
      {"measurement": "EC50", "setting": "EBOV-ZsG; Zaire ebolavirus, NCI-H358", "value": 2.1, "unit": "µM"},
      {"measurement": "EC50", "setting": "NiV-GFP2AM [4]; [8]", "value": "> 50", "unit": "µM"},
      {"measurement": "EC50", "setting": "EBOV (Makona variant)", "value": 2.1, "unit": "µM"},
      {"measurement": "Inhibition of FFU formation", "setting": "EBOV (Makona variant)", "value": "dose-dependent inhibition"},
      {"measurement": "SI (selective index)", "setting": "hPIV3-GFP", "value": "3.2 ± 0.50 [>32]"},
      {"measurement": "EC50", "setting": "hPIV3-GFP; Human respirovirus 3, NCI-H358", "value": 3.2, "unit": "µM"},
      {"measurement": "R1479-TP level (intracellular triphosphate)", "setting": "Huh7 cells", "value": "18 ± 0.6", "unit": "pmol/million cells"},
      {"measurement": "SI (selective index)", "setting": "rMV^EZEGFP(3)", "value": "1.9 ± 0.12 [>52]"},
      {"measurement": "EC50", "setting": "RVFV-GFP, ZH501; Rift Valley fever virus, NCI-H358", "value": "> 50", "unit": "µM"},
      {"measurement": "SI (selective index)", "setting": "HeV", "value": "2.1 ± 0.57 [>47]"},
      {"measurement": "EC50", "setting": "HeV; Henipavirus hendraense, NCI-H358", "value": 2.1, "unit": "µM"},
      {"measurement": "EC50", "setting": "[5]", "value": 2.6, "unit": "µM"}
    ]},
    {"compound": "[N-]=[N+]=N[C@]1(CO)O[C@@H](n2ccc(N)nc2=O)[C@@H](F)[C@@H]1O", "note": "[RO-0622, 2′-deoxy-2′-β-fluoro-4′-azidocytidine]", "values": [
      {"measurement": "Antiviral activity against NiV and EBOV", "setting": "NiV and EBOV", "value": "little to no antiviral activity"}
    ]},
    {"compound": "[N-]=[N+]=N[C@]1(CO)O[C@@H](n2ccc(N)nc2=O)[C@@H](O)[C@@H]1O", "note": "[RO-9187, 2′-deoxy-2′-β-hydroxy-4′-azidocytidine]", "values": [
      {"measurement": "Antiviral activity against NiV and EBOV", "setting": "NiV and EBOV", "value": "little to no antiviral activity"}
    ]}
  ]
}
